“And” between values parts separate entries of the source, which are not always exact repeats. Equal entries are not always repeated.
Tested on: SY cells
Assay: TUNEL apoptosis assay, TG-stimulated SY cells in 3-D versus 2-D culture
Assay type: cell-based, human
Experimental: SY cells (1×10^6) cultured in 2-D or 3-D were incubated with or without 10 nM TG. The 2-D and 3-D cells were harvested using trypsin, washed in PBS, and fixed for 5-10 min in 2% PFA. Prior to fixation, the 3-D-cultured cells treated inside of the RWV were separated from the beads using a 40-μm cell strainer (Becton Dickinson). The fixed cells were permeabilized in PBS/FSG/Triton and blocked with 10% NGS. Apoptosis was evaluated using the Apoptag TUNEL assay kit (Chemicon). The results were analyzed using a Leica TCS SP2 confocal microscope as described above. Cell morphology consistent with apoptosis including cell shrinkage, nuclear condensation and membrane blebbing were assessed along with the fluorescein staining for TUNEL. The number of apoptotic cells counted was divided by the total (500 minimum) number of cells counted. This protocol was also followed for evaluation of apoptosis in PC12 cells. An increased drug tolerance, 30-nM TG was used in the PC12 assay. 3-D-cultured PC12 samples were stimulated for 5 days after removal from the RWV to multi-well dishes.
Thapsigargin (TG) is known to induce apoptosis through the passive release of Ca^2+ from ER stores. These events lead to subsequent increases in cytosolic Ca^2+, stressing both the ER and the mitochondria (Elyaman et al., 2002; Nechushtan A, Smith C L, Lamensdorf I, Yoon S H, Youle R J. Bax and Bak coalesce into novel mitochondria-associated clusters during apoptosis. The Journal of cell biology, 2001; 153: 1265-76; Nguyen H N, Wang C, Perry D C. Depletion of intracellular calcium stores is toxic to SH-SY5Y neuronal cells. Brain Res, 2002; 924: 159-66; Scorrano et al., 2003; Zong W X, Li C, Hatzivassiliou G, Lindsten T, Yu Q C, Yuan J, Thompson C B. Bax and Bak can localize to the endoplasmic reticulum to initiate apoptosis. The Journal of cell biology, 2003; 162: 59-69). In order to determine inherent differences in apoptosis between the 3-D and 2-D cultured cells, the terminal uridine deoxynucleotidyl transferase dUTP nick end labeling (TUNEL) assay was used. […]

In the case of `C/C=C(/C)C(=O)O[C@H]1C(C)=C2[C@H]([C@@H]1OC(=O)CCCCCCC)[C@@](C)(OC(C)=O)C[C@H](OC(=O)CCC)[C@@]1(O)[C@H]2OC(=O)[C@@]1(C)O` [TG, Thapsigargin], the “thapsigargin-induced apoptosis in 3D cultured SH-SY5Y cells versus monolayer” value (3D versus ML culture) was “notably enhanced”, the “degree of apoptosis in TG-stimulated versus control cells at 24 h” value (24 h, TG 10 nM) was “noticeable difference in the degree of apoptosis occurring in stimulated versus control cells was found only in the 3-D(RWV) cells” and the “increase in TUNEL-positive (apoptotic) SY cells, 3-D versus 2-D culture, when treated with TG” value (TG 10 nM, 5 days, 3-D+TG versus 2-D+TG) was 4 to 7 fold and 4- to 7 fold.

Source: patent US20080274543A1, “Neuronal Cell Propagation Using Rotating Wall Vessel” (THE ADMINISTRATORS OF THE TULANE EDUCATIONAL FUND, priority 2007, published 2008)
